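Compound exposure: 48 hours, 5 concentrations, 96-well plates. Abbreviation: GI50, concentration required for 50% inhibition of growth. TGI: concentration producing complete growth inhibition.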
Tests used:
Assay in all cases: growth of human tumour cells (NCI), 48 h
A498 renal = system: A498 renal
CAKI-1 renal = system: CAKI-1 renal
CCRF-CEM leukemia = system: CCRF-CEM leukemia
DU-145 prostate = system: DU-145 prostate
HS 578T breast = system: HS 578T breast
HT29 colon = system: HT29 colon
K-562 leukemia = system: K-562 leukemia
MDA-MB-435 = system: MDA-MB-435
MOLT-4 leukemia = system: MOLT-4 leukemia
NCI/ADR-RES ovarian = system: NCI/ADR-RES ovarian
SK-MEL-2 melanoma = system: SK-MEL-2 melanoma
SK-MEL-5 melanoma = system: SK-MEL-5 melanoma
SK-OV-3 ovarian = system: SK-OV-3 ovarian
SW-620 colon = system: SW-620 colon
TK-10 renal = system: TK-10 renal
UACC-62 melanoma = system: UACC-62 melanoma
786-0 renal = system: 786-0 renal
A549 NSCLC = system: A549 NSCLC
BT-549 breast = system: BT-549 breast
COLO 205 colon = system: COLO 205 colon
EKVX NSCLC = system: EKVX NSCLC
HCC-2998 colon = system: HCC-2998 colon
HCT-116 colon = system: HCT-116 colon
HCT-15 colon = system: HCT-15 colon
HL-60(TB) leukemia = system: HL-60(TB) leukemia
HOP-62 NSCLC = system: HOP-62 NSCLC
HOP-92 NSCLC = system: HOP-92 NSCLC
IGROV1 ovarian = system: IGROV1 ovarian
KM12 colon = system: KM12 colon
LOX IMVI melanoma = system: LOX IMVI melanoma
M14 melanoma = system: M14 melanoma
MCF7 breast = system: MCF7 breast
MDA-MB-231 breast = system: MDA-MB-231 breast
NCI-H226 lung = system: NCI-H226 lung
NCI-H23 lung = system: NCI-H23 lung
NCI-H460 lung = system: NCI-H460 lung
NCI-H522 lung = system: NCI-H522 lung
OVCAR-3 ovarian = system: OVCAR-3 ovarian
OVCAR-4 ovarian = system: OVCAR-4 ovarian
OVCAR-5 ovarian = system: OVCAR-5 ovarian
OVCAR-8 ovarian = system: OVCAR-8 ovarian
PC-3 prostate = system: PC-3 prostate
RPMI-8226 leukemia = system: RPMI-8226 leukemia
RXF 393 renal = system: RXF 393 renal
SF-268 CNS = system: SF-268 CNS
SF-295 CNS = system: SF-295 CNS
SF-539 CNS = system: SF-539 CNS
SK-MEL-28 melanoma = system: SK-MEL-28 melanoma
SN12C renal = system: SN12C renal
SNB-19 CNS = system: SNB-19 CNS
SNB-75 CNS = system: SNB-75 CNS
SR leukemia = system: SR leukemia
U251 CNS = system: U251 CNS
UACC-257 melanoma = system: UACC-257 melanoma
UO-31 renal = system: UO-31 renal
T-47D breast = system: T-47D breast

## COc1ccc2c(CCCC(c3ccccc3)c3ccccc3)c3[n+](cc2c1OC)CCc1cc2c(cc1-3)OCO2
A498 renal
  GI50: 96.9 nM
  TGI: 996 nM
CAKI-1 renal
  GI50: 2270 nM
  TGI: 6510 nM
CCRF-CEM leukemia
  GI50: 453 nM
  TGI: 2560 nM
DU-145 prostate
  GI50: 470 nM
  TGI: 1720 nM
HS 578T breast
  GI50: 370 nM
  TGI: 2100 nM
HT29 colon
  GI50: 219 nM
  TGI: 1170 nM
K-562 leukemia
  GI50: 318 nM
  TGI: 1740 nM
MDA-MB-435
  GI50: 293 nM
  TGI: 1150 nM
MOLT-4 leukemia
  GI50: 376 nM
  TGI: 2070 nM
NCI/ADR-RES ovarian
  GI50: 4830 nM
  TGI: 38900 nM
SK-MEL-2 melanoma
  GI50: 271 nM
  TGI: 1110 nM
SK-MEL-5 melanoma
  GI50: 149 nM
  TGI: 284 nM
SK-OV-3 ovarian
  GI50: 303 nM
  TGI: 1050 nM
SW-620 colon
  GI50: 323 nM
  TGI: 1390 nM
TK-10 renal
  GI50: 324 nM
  TGI: 1290 nM
UACC-62 melanoma
  GI50: 243 nM
  TGI: 1060 nM

## CCCC[C@H](NC(=O)[C@H]1CCCN1C)C(=O)N(C)[C@H](C[C@@H](OC(C)=O)c1nc(C(=O)N[C@@H](Cc2ccccc2)C[C@H](C)C(=O)OCC)cs1)C(C)C
786-0 renal
  GI50: 17.1 nM
  TGI: 9960 nM
A498 renal
  GI50: 7.14 nM
  TGI: 84.1 nM
A549 NSCLC
  GI50: 50.1 nM
  TGI: > 33300 nM
BT-549 breast
  GI50: 16.8 nM
  TGI: 447 nM
CCRF-CEM leukemia
  GI50: 12.2 nM
  TGI: 6410 nM
COLO 205 colon
  GI50: 13.2 nM
  TGI: 96.1 nM
DU-145 prostate
  GI50: 13.7 nM
  TGI: > 33300 nM
EKVX NSCLC
  GI50: 59.1 nM
  TGI: > 33300 nM
HCC-2998 colon
  GI50: 11.3 nM
  TGI: 10900 nM
HCT-116 colon
  GI50: 12.5 nM
  TGI: > 33300 nM
HCT-15 colon
  GI50: 36.5 nM
  TGI: > 33300 nM
HL-60(TB) leukemia
  GI50: 5.8 nM
  TGI: 25.3 nM
HOP-62 NSCLC
  GI50: 43.9 nM
  TGI: > 33300 nM
HOP-92 NSCLC
  GI50: 1900 nM
  TGI: 32700 nM
HS 578T breast
  GI50: 18.6 nM
  TGI: 6920 nM
HT29 colon
  GI50: 9.74 nM
  TGI: 41.4 nM
IGROV1 ovarian
  GI50: 15.7 nM
  TGI: > 33300 nM
K-562 leukemia
  GI50: 7.26 nM
  TGI: > 33300 nM
KM12 colon
  GI50: 11.4 nM
  TGI: 18000 nM
LOX IMVI melanoma
  GI50: 17.3 nM
  TGI: 9990 nM
M14 melanoma
  GI50: 16.3 nM
  TGI: 3770 nM
MCF7 breast
  GI50: < 3.33 nM
  TGI: > 33300 nM
MDA-MB-231 breast
  GI50: 18 nM
  TGI: 844 nM
MDA-MB-435
  GI50: < 3.33 nM
  TGI: 6.55 nM
MOLT-4 leukemia
  GI50: 25.8 nM
  TGI: 15500 nM
NCI-H226 lung
  GI50: 531 nM
  TGI: 16400 nM
NCI-H23 lung
  GI50: 59.4 nM
  TGI: > 33300 nM
NCI-H460 lung
  GI50: 10.5 nM
  TGI: 4040 nM
NCI-H522 lung
  GI50: 3.41 nM
  TGI: 14.3 nM
NCI/ADR-RES ovarian
  GI50: 542 nM
  TGI: > 33300 nM
OVCAR-3 ovarian
  GI50: 8.3 nM
  TGI: 6380 nM
OVCAR-4 ovarian
  GI50: 357 nM
  TGI: > 33300 nM
OVCAR-5 ovarian
  GI50: 64.2 nM
  TGI: > 33300 nM
OVCAR-8 ovarian
  GI50: 36 nM
  TGI: > 33300 nM
PC-3 prostate
  GI50: 9.57 nM
  TGI: > 33300 nM
RPMI-8226 leukemia
  GI50: 3.99 nM
  TGI: 4840 nM
RXF 393 renal
  GI50: 7.45 nM
  TGI: 11300 nM
SF-268 CNS
  GI50: 21.7 nM
  TGI: 25200 nM
SF-295 CNS
  GI50: 13.9 nM
  TGI: 4130 nM
SF-539 CNS
  GI50: 22 nM
  TGI: 241 nM
SK-MEL-2 melanoma
  GI50: 6.13 nM
  TGI: 8710 nM
SK-MEL-28 melanoma
  GI50: 29 nM
  TGI: 17400 nM
SK-MEL-5 melanoma
  GI50: < 3.33 nM
  TGI: 63 nM
SK-OV-3 ovarian
  GI50: 96.9 nM
  TGI: > 33300 nM
SN12C renal
  GI50: 31.6 nM
  TGI: 8410 nM
SNB-19 CNS
  GI50: 10 nM
  TGI: > 33300 nM
SNB-75 CNS
  GI50: 15.2 nM
  TGI: 8920 nM
SR leukemia
  GI50: < 3.33 nM
  TGI: 5240 nM
SW-620 colon
  GI50: 10.6 nM
  TGI: > 33300 nM
TK-10 renal
  GI50: 6880 nM
  TGI: > 33300 nM
U251 CNS
  GI50: 14.4 nM
  TGI: > 33300 nM
UACC-257 melanoma
  GI50: 7810 nM
  TGI: > 33300 nM
UACC-62 melanoma
  GI50: 4.89 nM
  TGI: > 33300 nM
UO-31 renal
  GI50: 209 nM
  TGI: > 33300 nM

## Nc1nc(Cl)cc(OCC2(O)CC(COC(=O)c3ccccc3)C2)n1 (stereo not given)
A549 NSCLC
  GI50: 67800 nM
CCRF-CEM leukemia
  GI50: 47900 nM
COLO 205 colon
  GI50: 46600 nM
EKVX NSCLC
  GI50: 13200 nM
HCT-116 colon
  GI50: 82900 nM
HL-60(TB) leukemia
  GI50: 58400 nM
HS 578T breast
  GI50: 46600 nM
HT29 colon
  GI50: 70000 nM
K-562 leukemia
  GI50: 40300 nM
KM12 colon
  GI50: 30600 nM
LOX IMVI melanoma
  GI50: 76100 nM
MCF7 breast
  GI50: 47700 nM
MDA-MB-231 breast
  GI50: 48100 nM
MOLT-4 leukemia
  GI50: 26900 nM
  TGI: 83700 nM
NCI-H226 lung
  GI50: 81000 nM
NCI-H23 lung
  GI50: 51800 nM
NCI/ADR-RES ovarian
  GI50: 39500 nM
OVCAR-3 ovarian
  GI50: 82200 nM
OVCAR-4 ovarian
  GI50: 38200 nM
OVCAR-8 ovarian
  GI50: 71000 nM
RPMI-8226 leukemia
  GI50: 85500 nM
SF-295 CNS
  GI50: 78500 nM
SK-MEL-5 melanoma
  GI50: 37300 nM
SNB-19 CNS
  GI50: 34100 nM
SNB-75 CNS
  GI50: 53000 nM
SR leukemia
  GI50: 32100 nM
T-47D breast
  GI50: 30700 nM
U251 CNS
  GI50: 76100 nM
UO-31 renal
  GI50: 91500 nM

— PubChem BioAssay (NCI)
